These results are taken from US5925769A, “Acetylenic 1,5-diarylpyrazoles as antiinflammatory agents” (Ortho Pharmaceutical, Corp., priority 1998, dated 1999).

In general, IC50 refers to the concentration needed to halve the response being measured. Usually inhibition stands for the relative decrease from the control value, in per cent.

Experiment [1] deals with T1, 5-LO (Rattus norvegicus, UniProt P12527).
T1 construct: the supernatant was saved as the source of enzymes; endogenous in cells; host or cells: RBL-1 (rat basophilic leukemia) cells
T1 sequence (P12527 1-673): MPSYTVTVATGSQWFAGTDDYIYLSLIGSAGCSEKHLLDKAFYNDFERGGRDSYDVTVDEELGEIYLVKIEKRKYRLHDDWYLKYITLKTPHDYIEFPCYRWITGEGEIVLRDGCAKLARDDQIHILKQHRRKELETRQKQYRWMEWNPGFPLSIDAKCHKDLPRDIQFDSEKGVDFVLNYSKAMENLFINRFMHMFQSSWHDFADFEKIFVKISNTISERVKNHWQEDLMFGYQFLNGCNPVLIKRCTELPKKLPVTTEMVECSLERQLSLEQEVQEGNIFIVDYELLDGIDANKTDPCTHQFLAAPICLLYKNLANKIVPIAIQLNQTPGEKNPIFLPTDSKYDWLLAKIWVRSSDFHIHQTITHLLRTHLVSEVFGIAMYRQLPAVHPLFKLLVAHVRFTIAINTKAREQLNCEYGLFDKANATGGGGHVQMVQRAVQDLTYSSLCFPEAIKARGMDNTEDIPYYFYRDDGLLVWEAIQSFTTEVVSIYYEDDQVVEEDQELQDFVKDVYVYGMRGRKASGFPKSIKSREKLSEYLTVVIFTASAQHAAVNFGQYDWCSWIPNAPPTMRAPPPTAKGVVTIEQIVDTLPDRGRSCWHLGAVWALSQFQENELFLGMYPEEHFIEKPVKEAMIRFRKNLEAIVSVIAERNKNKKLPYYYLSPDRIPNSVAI
The experiment is described as follows: Procedure III: 5-LO (5-HETE) in intact RBL-1 cells. The settings on record: calcium ionophore A 23187, read-out: Proc. III 5-LO IC50. The class given is cell-based. An outline of the steps:
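Intact RBL-1 cells at 1×10^5 cells/mL in HBSS were preincubated with vehicle or drug, pelleted and resuspended, then given 1-^14C-AA. 5-HETE (5-LO) and PgD2 (CO) were separated by TLC after acidification/extraction and quantified by radioimaging; IC50 from regression curve fit.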

The target in experiment [2] is T2, CO (Rattus norvegicus, UniProt Q63921).
T2 construct: the supernatant was saved as the source of enzymes; endogenous in cells; host or cells: RBL-1 (rat basophilic leukemia) cells
T2 sequence (Q63921 27-602): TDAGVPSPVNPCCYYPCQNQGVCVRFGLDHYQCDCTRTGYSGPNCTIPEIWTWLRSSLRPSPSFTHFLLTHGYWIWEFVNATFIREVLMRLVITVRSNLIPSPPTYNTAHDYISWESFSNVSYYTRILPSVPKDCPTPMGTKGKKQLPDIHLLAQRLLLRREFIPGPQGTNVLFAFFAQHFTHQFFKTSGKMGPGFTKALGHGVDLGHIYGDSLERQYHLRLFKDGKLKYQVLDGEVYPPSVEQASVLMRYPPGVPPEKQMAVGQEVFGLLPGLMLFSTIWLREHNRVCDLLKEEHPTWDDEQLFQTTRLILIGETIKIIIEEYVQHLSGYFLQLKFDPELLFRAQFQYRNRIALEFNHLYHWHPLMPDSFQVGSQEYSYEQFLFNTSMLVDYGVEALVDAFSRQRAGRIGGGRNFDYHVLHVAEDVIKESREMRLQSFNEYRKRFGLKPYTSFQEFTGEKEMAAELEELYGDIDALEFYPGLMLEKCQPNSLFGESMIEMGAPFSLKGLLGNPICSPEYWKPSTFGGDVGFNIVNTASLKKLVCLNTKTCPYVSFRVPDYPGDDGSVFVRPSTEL
The experiment is described as follows: Procedure III: CO (PgD2) in intact RBL-1 cells. Format: cell-based. The settings on record: calcium ionophore A 23187, read-out: Proc. III CO IC50. The procedure:
The IC50 was determined using a curve fit in Cricket Graph (Computer Associated), which provided the equation of the regressed line used in the calculation.
In Procedure III, the ability to inhibit 5-LO and CO in intact RBL-1 cells was also evaluated. […] Cells were collected by centrifugation, washed once in HBSS, and resuspended at a concentration of 1×10^5 cells/mL. Cells were incubated in the presence of vehicle or drug then centrifuged at 800×g for 10 minutes at 4° C. The supernatant was removed by aspiration and the cells were resuspended in 0.5 mL of HBSS. […] The conversion of AA to 5-LO products was initiated by the addition of 10 μL (50 μCi) of 1-^14 C-AA. Products were isolated by acidification and extraction, followed by thin layer chromatography analysis as described above. Radioactive areas corresponding to authentic 5-LO (5-HETE) and CO (PgD2) products were quantitated by the Bioscan 2000 Imaging System and the IC50 was calculated as above.

Experiment [3] has as its target T2, CO. The experiment is described as follows: Procedure II: CO activity in broken RBL-1 cells (homogenate supernatant). The conditions noted are these: RBL-1 broken cell supernatant; for inhibition at 10 µM: 20 min, @ 10 .quadrature.M, read-out: Proc. II CO % inhibition. The class given is biochemical. An outline of the steps:
(§1)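 Supernatant from rat RBL-1 homogenate (9,220×g) was pre-incubated 5 min at 37 °C with 2 mM CaCl2 and compound or 1% DMSO, then with 1-^14C-arachidonic acid for 20 min at 37 °C.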

Experiment [4] has as its target T1, 5-LO. The experiment in a line: Procedure II: 5-LO activity (5-HETE) in broken RBL-1 cells (homogenate supernatant). The class given is biochemical. The settings on record: RBL-1 broken cell supernatant; for inhibition at 10 µM: 20 min, @ 10 .quadrature.M, read-out: Proc. II 5-LO % inhibition; for IC50: read-out: Proc. II 5-LO IC50. An outline of the steps:
as §1

In experiment [5] the target is T3, Sheep seminal vesicle (SSV) cyclooxygenase (Ovis aries, UniProt P05979).
T3 construct: Sheep seminal vesicle (SSV) cyclooxygenase (95% pure); purchased Biomol (Plymouth Meeting, PA); host or cells: sheep seminal vesicle
T3 sequence (P05979 25-600): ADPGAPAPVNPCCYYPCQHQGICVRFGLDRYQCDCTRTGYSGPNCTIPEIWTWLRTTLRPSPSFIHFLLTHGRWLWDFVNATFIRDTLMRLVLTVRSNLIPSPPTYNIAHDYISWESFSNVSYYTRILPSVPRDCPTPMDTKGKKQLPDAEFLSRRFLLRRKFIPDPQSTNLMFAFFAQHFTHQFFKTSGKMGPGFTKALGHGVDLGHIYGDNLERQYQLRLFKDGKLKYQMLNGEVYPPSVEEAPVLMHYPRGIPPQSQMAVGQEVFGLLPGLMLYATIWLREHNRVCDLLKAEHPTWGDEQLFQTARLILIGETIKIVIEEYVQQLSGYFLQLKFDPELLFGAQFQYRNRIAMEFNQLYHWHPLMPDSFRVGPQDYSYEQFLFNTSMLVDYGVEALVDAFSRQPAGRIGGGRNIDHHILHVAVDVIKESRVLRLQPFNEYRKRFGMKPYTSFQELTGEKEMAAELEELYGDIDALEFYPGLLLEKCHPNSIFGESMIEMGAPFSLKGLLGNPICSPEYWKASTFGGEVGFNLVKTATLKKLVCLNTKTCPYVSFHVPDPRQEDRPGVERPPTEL
The experiment in a line: Procedure I: inhibition of sheep seminal vesicle (SSV) cyclooxygenase. The settings on record: SSV cyclooxygenase; for IC50: read-out: Proc. I IC50; for inhibition at 10 µM: 20 min, @ 10 .quadrature.M, read-out: Proc. I % inhibition. The class given is biochemical. An outline of the steps: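 Turnover of [1-14C]-arachidonic acid by SSV cyclooxygenase ran 20 min after a 5 min preincubation at 37° C with test compound. Products (PGD2, PGE2, etc.) were extracted, resolved by TLC and quantified by radio-imaging; inhibition came from comparing curve areas with and without compound.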

Experiment [6] concerns CO. The experiment is described as follows: Procedure IV: ex vivo eicosanoid synthesis assay using dogs, CO (TxB2). Format: in vivo. The conditions noted are these: dog, oral, 5 mg/kg. The procedure: (§2) Adult beagle or mongrel dogs (10-15 kg) of either sex were fasted overnight prior to the initiation of each experiment. The forelimb was clipped and swabbed with an alcohol prep (70% isopropanol). Blood was drawn by venipuncture into syringes containing lithium heparin (Starstead, Newton, N.C.) immediately prior to administration of compound or vehicle and then at various intervals following dosing. The test compound was administered orally as a suspension in 0.5% methocel. At various times after dosing, blood samples were drawn and placed on an electric rocker platform to assure complete and continuous mixing. White blood cell (wbc) counts were performed using a Sysmex hematology analyzer. This was done in an effort to normalize the number of leukocytes to be stimulated with calcium ionophore. A 1.0 mL aliquot of whole blood was challenged with 50 μL of a 2.6×10^-5 M solution of calcium ionophore A23187 (Calbiochem, La Jolla, Calif.) prepared in DMSO and diluted in HBSS. After a 15 minute incubation at 37° C., the reaction was stopped by placing the samples in an ice bath (4° C.) for 5 minutes and then centrifuging at 11,000×g for 5 minutes to separate the plasma fraction from blood cells. The plasma fraction was removed, diluted in an appropriate buffer, and analyzed for the presence of LTB4 and TxB2 by standard RIA techniques.

Experiment [7] deals with 5-LO. The experiment is described as follows: Procedure IV: ex vivo eicosanoid synthesis assay using dogs, 5-LO (LTB4). The class given is in vivo. The settings on record: dog, oral, 5 mg/kg. The procedure:
as §2

`CCc1ccc(-c2cc(C#CC(C)N(O)C(=O)CCl)nn2-c2ccc(OC)cc2)cc1` (stereo not shown) [Cpd 31]: the IC50 in experiment [1] was found to be 36.8 µM; in experiment [2], 1700 nM; in experiment [5] it was 6.1 µM. The inhibition at 10 µM in experiment [3] worked out at 86%; in experiment [4] it was 100%.
As to `CCOC(=O)CCC(=O)N(O)C(C)C#Cc1cc(-c2ccc(CC)cc2)n(-c2ccc(OC)cc2)n1` (stereo not shown) [Cpd 32], the IC50 came out at 5.1 µM in experiment [1] and 14000 nM in experiment [2]. The inhibition at 10 µM came to 52% in experiment [3], 97% in experiment [4] and 3% in experiment [5].
As to `CCc1ccc(-c2cc(C#CC(C)N(O)C(=O)OC)nn2-c2ccc(OC)cc2)cc1` (stereo not shown) [Cpd 34], the IC50 is 57.4 µM in experiment [1] and 750 nM in experiment [2]. Also, the inhibition at 10 µM in experiment [3] was determined as 72%; in experiment [4], 78%; in experiment [5], 21%.
Turning to `COc1ccc(-n2nc(C#CC(C)N(O)C(C)=O)cc2-c2ccc(Cl)cc2)cc1` (stereo not shown) [Cpd 35, N-acetyl-N-(1-(5-(4-chlorophenyl)-1-(4-methoxyphenyl)pyrazol-3-yl)-1-butyn-3-yl)hydroxylamine], the “% inh CO” value in experiment [6] (2 h) turned out to be 92%; in experiment [6] (4 h) it was 75%; in experiment [6] (6 h), 81%; in experiment [6] (8 h), 62%; in experiment [6] (24 h), 68%. Further, the IC50 in experiment [1] was 8.1 µM; in experiment [4] it was 110 nM; in experiment [5] it was 2.54 µM. In addition, the “% inh 5-LO” value in experiment [7] (2 h) stood at 34%; in experiment [7] (4 h), 20%; in experiment [7] (6 h), 26%; in experiment [7] (8 h) it was 31%; in experiment [7] (24 h), 12%.
In the case of `COc1ccc(-n2nc(C#CC(C)N(O)C(=O)c3ccccc3)cc2-c2ccc(Cl)cc2)cc1` (stereo not shown) [Cpd 40], the IC50 came out at 1.8 µM in experiment [1], 5500 nM in experiment [2], 14.9 µM in experiment [3] (read-out: Proc. II CO IC50) and 920 nM in experiment [4]. Also, the inhibition at 10 µM in experiment [5] was 5%.
Take `COC(=O)N(O)C(C)C#Cc1cc(-c2ccc(Cl)cc2)n(-c2ccc(OC)cc2)n1` (stereo not shown) [Cpd 41, N-methoxycarbony-N-(1-(5-(4-chlorophenyl)-1-(4-methoxyphenyl)pyrazol-3-yl)-1-butyn-3-yl)hydroxylamine]: the IC50 is 8.7 µM in experiment [1], 290 nM in experiment [2] and 1.62 µM in experiment [5]. For the same compound, the figures for the inhibition at 10 µM in experiment [3] and in experiment [4] were 84% and 77%, respectively.
For `COc1ccc(-n2nc(C#CC(C)N(O)C(=O)Cn3ccnc3)cc2-c2ccc(C)cc2)cc1` (stereo not shown) [Cpd 43, N-(imidazol-1-yl)acetyl-N-(1-(1-(4-methoxyphenyl)-5-(4-methylphenyl)pyrazol-3-yl)-1-butyn-3-yl)hydroxylamine] the same measures were 38.7 µM, 3600 nM, 10 µM, 13% and 67%.
